Series [1] deals with Human alphaherpesvirus 1. Nature of the series: Antiviral activity against HSV1 infected herpes simplex keratitis New zealand rabbit model assessed as reduction in viral DNA level in corneal sample compound administered twice daily as gel 24 hrs post inoculation measured on day 9 post infection by RT-PCR analysis. The series is classed as functional, organism-based. Conditions: Cornea.

Series [2] deals with Human alphaherpesvirus 1. The experiment in a line: Antiviral activity against HSV1 infected herpes simplex keratitis New zealand rabbit model assessed as reduction in viral DNA level in corneal sample at 0.025% to 0.1% administered twice daily as gel 24 hrs post inoculation measured on day 9 post infection by RT-PCR analysis. Type of series: functional, organism-based. As to conditions: Cornea.

For series [3], the system named is Human alphaherpesvirus 1. The experiment in a line: Antiviral activity against HSV1 infected herpes simplex keratitis New zealand rabbit model assessed as reduction in corneal epithelia involvement score at 0.025% to 0.1% administered twice daily as gel 24 hrs post inoculation measured on day 9 post infection. Type of series: functional, organism-based. As to conditions: Cornea.

Series [4] in a line: Selectivity index, ratio of CC50 for african green monkey Vero cells to EC50 for HSV2 strain 333 infected in african green monkey Vero cells.
A short description of series [5]: Selectivity index, ratio of CC50 for african green monkey Vero cells to EC50 for HSV1 strain F ATCC VR733 infected in african green monkey Vero cells. The series is classed as toxicity, cell-based. Conditions: read-out: Ratio CC50/EC50.
Series [6] has as its system Human alphaherpesvirus 2. Nature of the series: Antiviral activity against HSV2 strain 333 infected in african green monkey Vero cells assessed as inhibition of cytopathic effect at 3.5 uM after 48 hrs by plaque reduction assay. Type of series: functional, cell-based. For orientation: Protection from cytopathic effect is a common read-out in antiviral testing.
Series [7] has as its system Human alphaherpesvirus 1. Nature of the series: Antiviral activity against HSV1 strain F ATCC VR733 infected in african green monkey Vero cells assessed as inhibition of cytopathic effect at 3.5 uM after 48 hrs by plaque reduction assay. The series is classed as functional, organism-based.
In series [8] the test system is Human alphaherpesvirus 2. Nature of the series: Antiviral activity against HSV2 strain 333 infected in african green monkey Vero cells assessed as inhibition of cytopathic effect after 48 hrs by plaque reduction assay. Conditions: for EC50: Human alphaherpesvirus 2, strain 333, Vero. Type of series: functional, cell-based.
Series [9] has as its system Human alphaherpesvirus 1. Nature of the series: Antiviral activity against HSV1 strain F ATCC VR733 infected in african green monkey Vero cells assessed as inhibition of cytopathic effect after 48 hrs by plaque reduction assay. The series is classed as functional, organism-based. As to conditions: for EC50: Human alphaherpesvirus 1, strain F ATCC VR733, Vero.
A short description of series [10]: Cytotoxicity against african green monkey Vero cells assessed as inhibition of cell viability after 48 hrs by MTT assay. The series is classed as cell-based. Conditions: chlorocebus sabaeus. A general note: Tetrazolium assays rely on reduction of a dye to a coloured formazan, in cell work by metabolically active cells.
The test system of series [11] is Human alphaherpesvirus 1. Nature of the series: Antiviral activity against HSV1 infected herpes simplex keratitis New zealand rabbit model at 0.025% to 0.1% administered twice daily as gel 24 hrs post inoculation measured on day 9 post infection. The series is classed as functional, organism-based.
The test system of series [12] is Human alphaherpesvirus 2. Nature of the series: Antiviral activity against HSV2 strain 333 infected in african green monkey Vero cells assessed as inhibition of cytopathic effect at 4 uM after 48 hrs by plaque reduction assay. Type of series: functional, cell-based.
Series [13] deals with Human alphaherpesvirus 1. The experiment in a line: Antiviral activity against HSV1 strain F ATCC VR733 infected in african green monkey Vero cells assessed as inhibition of cytopathic effect at 4 uM after 48 hrs by plaque reduction assay. The series is classed as functional, organism-based.
Series [14] can be described thus: Cytotoxicity against human MRC5 cells after 48 hrs by MTT assay. The series is classed as cell-based.
Series [15] relates to Human alphaherpesvirus 1. The experiment in a line: Antiviral activity against HSV1 infected herpes simplex keratitis New zealand rabbit model at 0.1% administered twice daily as gel 24 hrs post inoculation measured on day 9 post infection. Type of series: functional.
Series [16] deals with Human alphaherpesvirus 1. Nature of the series: Antiviral activity against HSV1 infected herpes simplex keratitis New zealand rabbit model at 0.025% administered twice daily as gel 24 hrs post inoculation measured on day 9 post infection. The series is classed as functional.

Activity calls are given as the source filed them. No cut-off for these calls is given here.

From ChEMBL document CHEMBL2163311, “Anti-herpes simplex virus efficacies of 2-aminobenzamide derivatives as novel HSP90 inhibitors” (Bioorg Med Chem Lett, 2012) come the findings set out here.

What is called EC50 is the concentration giving half of the maximal effect. For orientation: CC50 means the concentration giving 50% cytotoxicity.

In the case of `Nc1nc2c(ncn2COCCO)c(=O)[nH]1` [ACYCLOVIR], the Activity entry in series [1] was “Dose-dependent effect”. Further, the outcome in [2] and in series [3] was Active. The “Ratio CC50/EC50” value in series [4] is recorded as more than 106.95. In addition, in series [5], the selectivity ratio is more than 167. In addition, the inhibition result in series [6] and in [7] was “Active” each time. Moreover, the EC50 in series [8] is 1.87 µM; in series [9], 1.2 µM. Besides, in series [10], the CC50 at 48 h was more than 200 µM.

`CC1(C)CC(=O)c2c(C(F)(F)F)nn(-c3ccc(C(N)=O)c(N[C@H]4CC[C@H](O)CC4)c3)c2C1` [SNX-2112]: the Activity entry in series [1] was “Dose-dependent effect”. In addition, the result in series [2], in series [3] and in series [11] was Active. Besides, the “Ratio CC50/EC50” value in [4] was 7.21. For the same molecule, in series [5], the selectivity ratio turned out to be 5.9. For the same molecule, the inhibition entry in [12] and in series [13] was “Active” in each case. In addition, the inhibition result in series [8] and in series [9] was “Dose-dependent effect” throughout. Besides, the values for the EC50 in series [8] and in series [9] were 1.85 µM and 2.26 µM, respectively. Besides, the figures for the CC50 at 48 h in series [14] and in [10] were 21.3 µM and 13.3 µM, respectively.

Turning to `Cc1nn(-c2ccc(C(N)=O)c(N[C@H]3CC[C@H](O)CC3)c2)c2c1C(=O)CC(C)(C)C2`, the values for the Activity result in series [1], in [15] and in series [16] were “Dose-dependent effect”, 83.76% and 74.23%, respectively. Also, the outcome in series [2], in [3] and in [11] was Active. Moreover, the “Ratio CC50/EC50” value in series [4] was found to be 15.46. Further, the selectivity ratio in series [5] was 12.1. For the same molecule, the inhibition result in series [12] and in series [13] was “Active” in each case. Further, the inhibition entry in [8] and in series [9] was “Dose-dependent effect” in each case. Further, the EC50 came out at 1.75 µM in [8] and 2.24 µM in series [9]. Further, the CC50 at 48 h was 54.1 µM in series [14] and 27.1 µM in [10].

Turning to `Cc1cn(-c2ccc(C(N)=O)c(N[C@H]3CC[C@H](O)CC3)c2)c2c1C(=O)CC(C)(C)C2`, the Activity result in [1] was “Dose-dependent effect”. The outcome in series [2], in series [3] and in series [11] was Active. Also, the “Ratio CC50/EC50” value in series [4] is 12.94. Besides, the selectivity ratio in series [5] was 12.6. Further, the inhibition entry in series [12] and in [13] was “Active” each time. In addition, the inhibition entry in series [8] and in series [9] was “Dose-dependent effect” each time. For the same molecule, the EC50 in [8] was determined as 1 µM; in series [9] it was 1.03 µM. The CC50 at 48 h is 24.9 µM in series [14] and 12.9 µM in [10].
